According to PubChem BioAssay (NCI):
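48-hour exposure; five concentrations; linearly interpolated endpoints. GI50: concentration for 50% inhibition of growth. TGI is the concentration that stops growth completely.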

Columns and labels:
Assay in all cases: growth of human tumour cells (NCI), 48 h
786-0 renal = system: 786-0 renal
A498 renal = system: A498 renal
ACHN renal = system: ACHN renal
CAKI-1 renal = system: CAKI-1 renal
CCRF-CEM leukemia = system: CCRF-CEM leukemia
DU-145 prostate = system: DU-145 prostate
EKVX NSCLC = system: EKVX NSCLC
HCC-2998 colon = system: HCC-2998 colon
HCT-116 colon = system: HCT-116 colon
HCT-15 colon = system: HCT-15 colon
HL-60(TB) leukemia = system: HL-60(TB) leukemia
HOP-62 NSCLC = system: HOP-62 NSCLC
HOP-92 NSCLC = system: HOP-92 NSCLC
HS 578T breast = system: HS 578T breast
HT29 colon = system: HT29 colon
IGROV1 ovarian = system: IGROV1 ovarian
K-562 leukemia = system: K-562 leukemia
KM12 colon = system: KM12 colon
LOX IMVI melanoma = system: LOX IMVI melanoma
M14 melanoma = system: M14 melanoma
MCF7 breast = system: MCF7 breast
MDA-MB-231 breast = system: MDA-MB-231 breast
MDA-MB-435 = system: MDA-MB-435
MDA-N = system: MDA-N
MOLT-4 leukemia = system: MOLT-4 leukemia
NCI-H226 lung = system: NCI-H226 lung
NCI-H23 lung = system: NCI-H23 lung
NCI-H460 lung = system: NCI-H460 lung
NCI-H522 lung = system: NCI-H522 lung
NCI/ADR-RES ovarian = system: NCI/ADR-RES ovarian
OVCAR-3 ovarian = system: OVCAR-3 ovarian
OVCAR-4 ovarian = system: OVCAR-4 ovarian
OVCAR-5 ovarian = system: OVCAR-5 ovarian
OVCAR-8 ovarian = system: OVCAR-8 ovarian
PC-3 prostate = system: PC-3 prostate
RPMI-8226 leukemia = system: RPMI-8226 leukemia
RXF 393 renal = system: RXF 393 renal
SF-268 CNS = system: SF-268 CNS
SF-295 CNS = system: SF-295 CNS
SF-539 CNS = system: SF-539 CNS
SK-MEL-2 melanoma = system: SK-MEL-2 melanoma
SK-MEL-28 melanoma = system: SK-MEL-28 melanoma
SK-MEL-5 melanoma = system: SK-MEL-5 melanoma
SK-OV-3 ovarian = system: SK-OV-3 ovarian
SW-620 colon = system: SW-620 colon
T-47D breast = system: T-47D breast
TK-10 renal = system: TK-10 renal
U251 CNS = system: U251 CNS
UACC-257 melanoma = system: UACC-257 melanoma
UO-31 renal = system: UO-31 renal
A549 NSCLC = system: A549 NSCLC
BT-549 breast = system: BT-549 breast
COLO 205 colon = system: COLO 205 colon
MALME-3M melanoma = system: MALME-3M melanoma
SN12C renal = system: SN12C renal
SNB-19 CNS = system: SNB-19 CNS
SNB-75 CNS = system: SNB-75 CNS
SR leukemia = system: SR leukemia
UACC-62 melanoma = system: UACC-62 melanoma

## Cc1cc(OCc2nn(CN3CCN(C)CC3)c(=S)n2/N=C/c2ccc(-c3ccc(Cl)cc3Cl)o2)ccc1Cl
786-0 renal
  TGI: > 100 µM
A498 renal
  TGI: > 100 µM
ACHN renal
  TGI: > 100 µM
CAKI-1 renal
  TGI: > 100 µM
CCRF-CEM leukemia
  TGI: > 100 µM
DU-145 prostate
  TGI: > 100 µM
EKVX NSCLC
  TGI: > 100 µM
HCC-2998 colon
  TGI: 31.4 µM
HCT-116 colon
  TGI: > 100 µM
HCT-15 colon
  TGI: > 100 µM
HL-60(TB) leukemia
  TGI: 52.6 µM
HOP-62 NSCLC
  TGI: > 100 µM
HOP-92 NSCLC
  TGI: 95.9 µM
HS 578T breast
  TGI: > 100 µM
HT29 colon
  TGI: > 100 µM
IGROV1 ovarian
  TGI: > 100 µM
K-562 leukemia
  TGI: > 100 µM
KM12 colon
  TGI: 47.6 µM
LOX IMVI melanoma
  TGI: > 100 µM
M14 melanoma
  TGI: > 100 µM
MCF7 breast
  TGI: > 100 µM
MDA-MB-231 breast
  TGI: > 100 µM
MDA-MB-435
  TGI: > 100 µM
MDA-N
  TGI: > 100 µM
MOLT-4 leukemia
  TGI: > 100 µM
NCI-H226 lung
  TGI: > 100 µM
NCI-H23 lung
  TGI: > 100 µM
NCI-H460 lung
  TGI: > 100 µM
NCI-H522 lung
  TGI: 59 µM
NCI/ADR-RES ovarian
  TGI: > 100 µM
OVCAR-3 ovarian
  TGI: > 100 µM
OVCAR-4 ovarian
  TGI: 70.6 µM
OVCAR-5 ovarian
  TGI: > 100 µM
OVCAR-8 ovarian
  TGI: > 100 µM
PC-3 prostate
  TGI: > 100 µM
RPMI-8226 leukemia
  TGI: > 100 µM
RXF 393 renal
  TGI: 41.3 µM
SF-268 CNS
  TGI: > 100 µM
SF-295 CNS
  TGI: > 100 µM
SF-539 CNS
  TGI: > 100 µM
SK-MEL-2 melanoma
  TGI: > 100 µM
SK-MEL-28 melanoma
  TGI: > 100 µM
SK-MEL-5 melanoma
  TGI: > 100 µM
SK-OV-3 ovarian
  TGI: > 100 µM
SW-620 colon
  TGI: 51 µM
T-47D breast
  TGI: > 100 µM
TK-10 renal
  TGI: > 100 µM
U251 CNS
  TGI: > 100 µM
UACC-257 melanoma
  TGI: > 100 µM
UO-31 renal
  TGI: > 100 µM

## COc1ccc(C/C(C)=C(\c2ccc(OCCN3CCOCC3)cc2)c2ccc(OC(=O)Cc3ccccc3)cc2)cc1
786-0 renal
  GI50: 0.51 µM
  TGI: 0.994 µM
A498 renal
  GI50: 0.462 µM
  TGI: 0.971 µM
A549 NSCLC
  GI50: 1.02 µM
  TGI: 11.2 µM
ACHN renal
  GI50: 0.99 µM
  TGI: 3.38 µM
BT-549 breast
  GI50: 0.502 µM
  TGI: 0.996 µM
CAKI-1 renal
  GI50: 0.729 µM
  TGI: 2.13 µM
CCRF-CEM leukemia
  GI50: 0.813 µM
  TGI: 8.27 µM
COLO 205 colon
  GI50: 0.614 µM
  TGI: 1.54 µM
DU-145 prostate
  GI50: 1.33 µM
  TGI: 20.4 µM
EKVX NSCLC
  GI50: 0.851 µM
  TGI: 3.49 µM
HCC-2998 colon
  GI50: 0.668 µM
  TGI: 1.49 µM
HCT-116 colon
  GI50: 0.496 µM
  TGI: 0.989 µM
HCT-15 colon
  GI50: 0.566 µM
  TGI: 1.5 µM
HL-60(TB) leukemia
  GI50: 0.553 µM
  TGI: 1.26 µM
HOP-62 NSCLC
  GI50: 0.621 µM
  TGI: 1.17 µM
HOP-92 NSCLC
  GI50: 0.28 µM
  TGI: 0.901 µM
HS 578T breast
  GI50: 0.658 µM
  TGI: 1.67 µM
HT29 colon
  GI50: 0.288 µM
  TGI: 0.716 µM
IGROV1 ovarian
  GI50: 1.13 µM
  TGI: 5.03 µM
K-562 leukemia
  GI50: 0.456 µM
  TGI: 1.66 µM
KM12 colon
  GI50: 1.14 µM
  TGI: 3.37 µM
LOX IMVI melanoma
  GI50: 0.56 µM
  TGI: 1.03 µM
M14 melanoma
  GI50: 0.59 µM
  TGI: 1.19 µM
MALME-3M melanoma
  GI50: 0.531 µM
  TGI: 1.03 µM
MCF7 breast
  GI50: 0.574 µM
  TGI: 1.54 µM
MDA-MB-231 breast
  GI50: 0.583 µM
  TGI: 1.26 µM
MDA-MB-435
  GI50: 0.632 µM
  TGI: 1.34 µM
MOLT-4 leukemia
  GI50: 0.593 µM
  TGI: 1.91 µM
NCI-H226 lung
  GI50: 0.691 µM
  TGI: 2.38 µM
NCI-H23 lung
  GI50: 0.823 µM
  TGI: 3.3 µM
NCI-H460 lung
  GI50: 0.713 µM
  TGI: 1.53 µM
NCI-H522 lung
  GI50: 0.564 µM
  TGI: 1.08 µM
NCI/ADR-RES ovarian
  GI50: 0.961 µM
  TGI: 12.5 µM
OVCAR-3 ovarian
  GI50: 0.766 µM
  TGI: 1.66 µM
OVCAR-4 ovarian
  GI50: 1.03 µM
  TGI: 10.2 µM
OVCAR-5 ovarian
  GI50: 0.951 µM
  TGI: 10.7 µM
OVCAR-8 ovarian
  GI50: 1.07 µM
  TGI: 11.3 µM
PC-3 prostate
  GI50: 0.747 µM
  TGI: 2.97 µM
RPMI-8226 leukemia
  GI50: 0.531 µM
  TGI: 1.31 µM
RXF 393 renal
  GI50: 0.438 µM
  TGI: 0.883 µM
SF-268 CNS
  GI50: 0.96 µM
  TGI: 12.8 µM
SF-295 CNS
  GI50: 0.58 µM
  TGI: 1.12 µM
SF-539 CNS
  GI50: 0.513 µM
  TGI: 0.977 µM
SK-MEL-2 melanoma
  GI50: 0.657 µM
  TGI: 1.25 µM
SK-MEL-28 melanoma
  GI50: 0.555 µM
  TGI: 1.06 µM
SK-MEL-5 melanoma
  GI50: 0.485 µM
  TGI: 0.93 µM
SK-OV-3 ovarian
  GI50: 0.978 µM
  TGI: 4.45 µM
SN12C renal
  GI50: 0.612 µM
  TGI: 1.44 µM
SNB-19 CNS
  GI50: 1.3 µM
  TGI: 8.34 µM
SNB-75 CNS
  GI50: 0.692 µM
  TGI: 4.47 µM
SR leukemia
  GI50: 0.648 µM
  TGI: 1.73 µM
SW-620 colon
  GI50: 0.742 µM
  TGI: 1.8 µM
T-47D breast
  GI50: 0.483 µM
  TGI: 1.28 µM
TK-10 renal
  GI50: 0.778 µM
  TGI: 2.03 µM
U251 CNS
  GI50: 0.501 µM
  TGI: 0.965 µM
UACC-257 melanoma
  GI50: 0.578 µM
  TGI: 1.09 µM
UACC-62 melanoma
  GI50: 0.527 µM
  TGI: 1.06 µM
UO-31 renal
  GI50: 0.422 µM
  TGI: 0.952 µM
